# Laboratory results taken from article PMC8160025 (Nanomedicine : nanotechnology, biology, and medicine, 2020).
# Experiments:
# [1] = Spatial distribution of vismodegib in brain sections by IR-MALDESI; assay type: in vivo, mouse; settings: 4 h after IP injection
# serum protein = assay: Unbound vismodegib over time after incubation in FBS; assay type: in vitro ADME, bovine; settings: 30 min incubation
# [2] = Bone toxicity: femur length by CT scan and direct measurement; assay type: in vivo, mouse; settings: 4 daily doses of 100 mg/kg IP from P10
# phosphorylated RB (pRB) = assay: Pharmacodynamics: pRB+ / PCNA proliferation markers in G-Smo medulloblastoma; assay type: in vivo, mouse; settings: for suppression of pRB+ cell fraction in tumors: 24 h
# [3] = tested on: SHH-driven medulloblastoma; assay: Survival; assay type: in vivo, mouse; settings: 100 mg/kg IP or orally, or 50 mg/kg IP
# [4] = 4 h
# [5] = cited from earlier work
# [6] = children; cited from earlier work
# [7] = Pharmacokinetics by LC-MS in medulloblastoma-bearing G-Smo mice; settings: mouse, in vivo, ip, 100 mg/kg
# albumin = settings: 4 h post administration, SPE
compound,measurement,setting,value
CS(=O)(=O)c1ccc(C(=O)Nc2ccc(Cl)c(-c3ccccn3)c2)c(Cl)c1 [vismodegib],distribution of vismodegib in tumor and forebrain,[1],evenly distributed
same,unbound fraction of total vismodegib,serum protein,marginal
same,femur length,[2],reduced femur length
same,suppression of pRB,phosphorylated RB (pRB); 50 mg/kg IP,sufficient to suppress pRB
same,suppression of pRB+ cell fraction in tumors,phosphorylated RB (pRB); single 100 mg/kg IP,similarly suppressed pRB
same,suppression of pRB+ cell fraction in tumors,phosphorylated RB (pRB); single 100 mg/kg oral,less suppression
same,event free survival (EFS),[3],failed to extend the EFS
same,vismodegib level in serum,"[4]; 100 mg/kg, systemic (IP)",comparable levels to POx-vismo
same,"vismodegib concentrations in blood, tumor and forebrain compared to POx-vismo",[4]; oral gavage,significantly lower
same,oral bioavailability,[5],31.8%
same,drug levels in the CSF as % of the concentration of unbound vismodegib,[6],26-78%
same,drug levels in the CSF as % of total plasma vismodegib,[6],0.26%
same,Kp,[7],0.439
same,drug albumin-bound in serum,albumin,90%
same,vismodegib unbound in serum,albumin,9%
